Legend:
[1] = Stability of spermicidal activity of chlorhexidine / composition in solution; assay type: physicochemical
sperm (semen) = assay: Spermicidal action in isotonic aqueous sucrose: % of sperm motile 1 minute after contact (Example 2); assay type: cell-based, human
Experimental: (§1) Chlorhexidine, as the diacetate salt, and/or nonoxynol-9 (50 μl. of an appropriate aqueous dilution) was dissolved in Tyrodes T6 balanced salt solution supplemented with 4 mg./ml. of human albumin. The solution was prepared and used immediately, by being mixed with 50 μl. of fresh human semen with a sperm concentration of at least 50 million per ml, and a motility of at least 80%, and incubated at 25 degrees C. for about 1 minute.
(§2) The motility of the sperm so treated was measured by one of two methods:
(§3) (1) If the concentration of chlorhexidine caused protein precipitation, motility was estimated by phase contrast microscopy at 200× magnification in a 10 μm deep counting chamber.
(§4) (2) If the solution remained optically clear, motility was measured by laser Doppler spectroscopy. This technique involves the analysis by auto-correlation of the fraction of the scattered laser light which contains the Doppler-shifted frequencies generated by interaction between the incident laser and the sperm head.
The procedure of Example 1 was repeated, using solutions of the specified compounds (nonoxenol-9 and chlorhexidine diacetate) in an isotonic aqueous solution of sucrose, the spermicidal action of nonoxenol-9 and chlorhexidine diacetate, derived from five examinations, each being measured in duplicate. The concentrations are the final values in semen.
The values expressed are the percentages, expressed as a mean, of the sperm which are motile 1 minute after contact with the spermicide.

sperm = assay: Site of spermicidal action (vagina, cervical mucus); conditions: vagina and cervical mucus; no test described
human semen (sperm) = assay: Inhibition of motility of human sperm, ~1 min, in Tyrodes T6 medium (Example 1); assay type: cell-based; conditions: about 1 minute, 25 degrees C., Tyrodes T6 + human albumin
Experimental: as §1, §2, §3, §4

Molecule | loss of spermicidal activity ([1]; chloride ion at physiological concentrations) | tendency to lose spermicidal activity ([1]; in some circumstances and formulations, associated with certain anions) | stability of aqueous solution ([1]; isotonic aqueous sucrose solution) | percentage of the sperm which are motile 1 minute after contact (mean) (sperm (semen); Chlorhexidine 0.5 mg/ml, nonoxynol-9 0, untreated 50.37) | percentage of the sperm which are motile 1 minute after contact (mean) (sperm (semen); Chlorhexidine 1.0 mg/ml, nonoxynol-9 0, untreated 50.37) | percentage of the sperm which are motile 1 minute after contact (mean) (sperm (semen); Chlorhexidine 2.0 mg/ml, nonoxynol-9 0, untreated 50.37) | percentage of the sperm which are motile 1 minute after contact (mean) (sperm (semen); Chlorhexidine 5.0 mg/ml, nonoxynol-9 0, untreated 50.37) | site of spermicidal action (sperm) | % Inhibition of motility (human semen (sperm); 0.5 mg./ml.) | inhibition at 2000 µg/mL (human semen (sperm); Sperm, 1 min, 2 mg./ml.) | percentage of the sperm which are motile 1 minute after contact (mean) (sperm (semen); Nonoxynol-9 0.2 mg/ml, chlorhexidine 0, untreated 50.37) | percentage of the sperm which are motile 1 minute after contact (mean) (sperm (semen); Nonoxynol-9 0.4 mg/ml, chlorhexidine 0, untreated 50.37) | percentage of the sperm which are motile 1 minute after contact (mean) (sperm (semen); Nonoxynol-9 0.6 mg/ml, chlorhexidine 0, untreated 50.37) | % Inhibition of motility (human semen (sperm); 2 mg./ml.)
[H]/N=C(\N/C(=N/[H])NCCCCCCNC(=N)NC(=N)Nc1ccc(Cl)cc1)Nc1ccc(Cl)cc1 [Chlorhexidine, 1:6-di-(N-p-chlorophenyl-diguanido)-hexane] | lose its spermicidal activity in less than two hours | marked tendency to lose its spermicidal activity | remained stable for greater than three days | 39.32% | 16.14% | 10.02% | 0% | acts as a spermicide both in the vagina and in the cervical mucus | ZERO | 5% | – | – | – | –
Nonoxynol-9 | – | – | – | – | – | – | – | only spermicidal in the vagina and does not enter the cervical mucus | ZERO | – | 31.09% | 0% | 0% | 100%
